Data as given in PubChem BioAssay (NCI).
Where “and” joins values, the source holds several entries; their conditions need not be identical. Equal entries are not always repeated.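 Briefly, cells in 96-well plates were exposed to five compound concentrations for 48 h, and endpoints were estimated by linear interpolation. Here, GI50 denotes the concentration required for 50% inhibition of growth. TGI is the concentration that stops growth completely.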

How the values were obtained:
Test in all cases: growth of human tumour cells (NCI), 48 h
HCT-116 colon = test system: HCT-116 colon
HS 578T breast = test system: HS 578T breast
U251 CNS = test system: U251 CNS
NCI-H23 lung = test system: NCI-H23 lung
RXF 393 renal = test system: RXF 393 renal
SF-295 CNS = test system: SF-295 CNS
BT-549 breast = test system: BT-549 breast
T-47D breast = test system: T-47D breast
HOP-92 NSCLC = test system: HOP-92 NSCLC
IGROV1 ovarian = test system: IGROV1 ovarian

## Cc1c(C)c2c(c(C)c1NC(=O)/C=C\C(=O)O)CCC(C)(CCCC(C)CCCC(C)CCCC(C)C)O2 (stereo not drawn)
HCT-116 colon
  GI50: 1.28 µM
  TGI: 2.54 µM
HS 578T breast
  GI50: 1.89 µM
  TGI: 4.97 µM
U251 CNS
  GI50: 1.64 µM
  TGI: 3.18 µM
NCI-H23 lung
  GI50: 2.1 µM
  TGI: 4.52 µM
RXF 393 renal
  GI50: 1.74 µM
  TGI: 3.23 µM
SF-295 CNS
  GI50: 1.32 µM
  TGI: 2.77 µM
BT-549 breast
  GI50: 1.35 µM
  TGI: 2.69 µM
T-47D breast
  GI50: 2.02 µM
  TGI: 4.78 µM
HOP-92 NSCLC
  GI50: 1.1 µM
  TGI: 2.35 µM
IGROV1 ovarian
  GI50: 1.94 µM
  TGI: 4.88 µM

## COc1cccc(C(=O)Nc2ccc(CN3CCc4nc5cc(OC)c(OC)cc5cc43)cc2)c1
HCT-116 colon
  GI50: 3.12 µM
  TGI: 12.1 µM
HS 578T breast
  GI50: 3.87 µM
  TGI: 34 µM
U251 CNS
  GI50: 3.17 µM
  TGI: 12.7 µM
NCI-H23 lung
  GI50: 4.5 µM
  TGI: 25.4 µM
RXF 393 renal
  GI50: 2.74 µM
  TGI: 15.3 µM
SF-295 CNS
  GI50: 5.72 µM
  TGI: 28.1 µM
BT-549 breast
  GI50: 5.32 µM
  TGI: 22.8 µM
T-47D breast
  GI50: 4.49 µM
  TGI: 53.7 µM
HOP-92 NSCLC
  GI50: 1.92 µM
  TGI: 7.45 µM
IGROV1 ovarian
  GI50: 5.15 µM
  TGI: > 100 µM

## CCN(CC)C(=O)CC1=C(C)/C(=C/c2[nH]c(-c3ccc[nH]3)cc2OC)N=C1C
HCT-116 colon
  GI50: 0.286 µM
  TGI: 10.3 µM
HS 578T breast
  GI50: 0.656 µM
  TGI: 7.97 µM
U251 CNS
  GI50: 0.449 µM
  TGI: 15.5 µM
NCI-H23 lung
  GI50: 0.794 µM
  TGI: 71.9 µM
RXF 393 renal
  GI50: 1.1 µM
  TGI: 22.9 µM
SF-295 CNS
  GI50: 0.361 µM
  TGI: 1.73 µM
BT-549 breast
  GI50: 0.787 µM
  TGI: 47.1 µM
T-47D breast
  GI50: 0.272 µM
  TGI: 13.1 µM
HOP-92 NSCLC
  GI50: 0.235 µM
  TGI: 0.977 µM
IGROV1 ovarian
  GI50: 0.43 µM
  TGI: 15.6 µM

## NC(C/[N+]([O-])=N/O)C(=O)O (stereo not drawn)
HCT-116 colon
  GI50: 1.01 µM and 2.07 µM and 0.954 µM
HS 578T breast
  TGI: > 225 µM
U251 CNS
  GI50: 0.772 µM and 3.82 µM and 0.713 µM
  TGI: > 500 µM
NCI-H23 lung
  GI50: 3.85 µM and 12.6 µM and 1.61 µM
  TGI: > 100 µM and 154 µM
RXF 393 renal
  GI50: 93.2 µM and > 100 µM and 29 µM
  TGI: > 100 µM and 381 µM
SF-295 CNS
  GI50: 6.24 µM
  TGI: > 500 µM
BT-549 breast
  GI50: 4.46 µM and 9.57 µM and 9.78 µM
  TGI: > 500 µM
T-47D breast
  GI50: 198 µM
  TGI: > 500 µM
HOP-92 NSCLC
  GI50: > 91.7 µM and 71.4 µM and 33.4 µM
  TGI: > 100 µM and 209 µM
IGROV1 ovarian
  GI50: 0.107 µM and 0.967 µM and 0.348 µM
  TGI: > 24.7 µM and > 100 µM and 256 µM

## C=CCn1c(=O)c2cnc(Nc3ccc(N4CCN(C)CC4)cc3)nc2n1-c1ccc2c(n1)[C@@](O)(CC)CC2
HCT-116 colon
  GI50: 0.415 µM
  TGI: 16 µM
HS 578T breast
  GI50: 0.755 µM
  TGI: 12.4 µM
U251 CNS
  GI50: 1.11 µM
  TGI: 35.7 µM
NCI-H23 lung
  GI50: 0.25 µM
  TGI: 1.42 µM
RXF 393 renal
  GI50: 0.131 µM
  TGI: 0.686 µM
SF-295 CNS
  GI50: 0.742 µM
  TGI: 18.7 µM
BT-549 breast
  GI50: 0.287 µM
  TGI: 3.46 µM
T-47D breast
  GI50: 2.17 µM
  TGI: > 80.7 µM
HOP-92 NSCLC
  GI50: 0.494 µM
  TGI: 30.5 µM
IGROV1 ovarian
  GI50: 0.212 µM
  TGI: 13.6 µM

## Oc1c(C(Nc2cccc3ccccc23)c2ccccc2)ccc2cccnc12 (stereo not drawn)
HCT-116 colon
  GI50: 2.86 µM
  TGI: 17.9 µM
HS 578T breast
  GI50: 7.37 µM
  TGI: > 100 µM
U251 CNS
  GI50: 2.42 µM
  TGI: 16 µM
NCI-H23 lung
  GI50: 4.04 µM
  TGI: 27.5 µM
RXF 393 renal
  GI50: 3.12 µM
  TGI: 19.1 µM
SF-295 CNS
  GI50: 2.96 µM
  TGI: > 100 µM
BT-549 breast
  GI50: 2.07 µM
  TGI: 14.5 µM
T-47D breast
  GI50: 4.75 µM
  TGI: 58.3 µM
HOP-92 NSCLC
  GI50: 2.95 µM
  TGI: 36.3 µM
IGROV1 ovarian
  GI50: 3.79 µM
  TGI: 11 µM

## COC(=O)CCC(C)[C@H]1CCC2C3C(C[C@H](OC(C)=O)[C@@]21C)[C@@]1(C)CCC2(C[C@H]1C[C@H]3OC(C)=O)OOC1(CCC(C)CC1)OO2 (stereo partly drawn)
HCT-116 colon
  TGI: > 100 µM
HS 578T breast
  GI50: 2.01 µM and 9.68 µM
  TGI: 41.6 µM and 70.7 µM
U251 CNS
  TGI: > 100 µM
NCI-H23 lung
  GI50: 7.74 µM and 15.6 µM
  TGI: > 100 µM
RXF 393 renal
  TGI: > 100 µM
SF-295 CNS
  GI50: > 100 µM and 47.1 µM
  TGI: > 100 µM
BT-549 breast
  GI50: 6.42 µM and 57 µM
  TGI: > 100 µM
T-47D breast
  TGI: > 100 µM
HOP-92 NSCLC
  TGI: 7.63 µM and 69.9 µM
IGROV1 ovarian
  GI50: 3.82 µM and 10.1 µM
  TGI: 16.4 µM and 27.3 µM

## CCOC(=O)C1=C(C)NC2SC(=O)/C(=C\c3ccccc3Cl)N2C1c1ccccc1 (stereo not drawn)
HCT-116 colon
  GI50: > 100 µM
  TGI: > 100 µM
HS 578T breast
  GI50: > 100 µM
  TGI: > 100 µM
U251 CNS
  GI50: > 100 µM
  TGI: > 100 µM
NCI-H23 lung
  GI50: > 100 µM
  TGI: > 100 µM
RXF 393 renal
  GI50: > 100 µM
  TGI: > 100 µM
SF-295 CNS
  GI50: > 100 µM
  TGI: > 100 µM
BT-549 breast
  GI50: > 100 µM
  TGI: > 100 µM
T-47D breast
  GI50: 33.8 µM
  TGI: > 100 µM
HOP-92 NSCLC
  GI50: > 100 µM
  TGI: > 100 µM
IGROV1 ovarian
  GI50: > 100 µM
  TGI: > 100 µM

## COc1cc(N2CCN(C(C)C)CC2)ccc1Nc1nc(Nc2cccc3ncccc23)c2cc[nH]c2n1
HCT-116 colon
  GI50: 3.04 µM
  TGI: 7.11 µM
HS 578T breast
  GI50: 5.42 µM
  TGI: 24.3 µM
U251 CNS
  GI50: 4.54 µM
  TGI: 15.1 µM
NCI-H23 lung
  GI50: 5.7 µM
  TGI: > 25 µM
RXF 393 renal
  GI50: 3.93 µM
  TGI: 9.38 µM
SF-295 CNS
  GI50: 5.46 µM
  TGI: 17.9 µM
BT-549 breast
  GI50: 4.75 µM
  TGI: 13.6 µM
T-47D breast
  GI50: 3.8 µM
  TGI: 13.6 µM
HOP-92 NSCLC
  GI50: 0.464 µM
  TGI: 2.85 µM
IGROV1 ovarian
  GI50: 12.1 µM
  TGI: > 25 µM
